For one data set, the target named is T1, human FSH receptor (Homo sapiens, UniProt P23945).
T1 construct: host or cells: CHO-K1 (CHO FSH-R 6CRE-Luc, 1D7 cells)
T1 sequence (P23945 18-695): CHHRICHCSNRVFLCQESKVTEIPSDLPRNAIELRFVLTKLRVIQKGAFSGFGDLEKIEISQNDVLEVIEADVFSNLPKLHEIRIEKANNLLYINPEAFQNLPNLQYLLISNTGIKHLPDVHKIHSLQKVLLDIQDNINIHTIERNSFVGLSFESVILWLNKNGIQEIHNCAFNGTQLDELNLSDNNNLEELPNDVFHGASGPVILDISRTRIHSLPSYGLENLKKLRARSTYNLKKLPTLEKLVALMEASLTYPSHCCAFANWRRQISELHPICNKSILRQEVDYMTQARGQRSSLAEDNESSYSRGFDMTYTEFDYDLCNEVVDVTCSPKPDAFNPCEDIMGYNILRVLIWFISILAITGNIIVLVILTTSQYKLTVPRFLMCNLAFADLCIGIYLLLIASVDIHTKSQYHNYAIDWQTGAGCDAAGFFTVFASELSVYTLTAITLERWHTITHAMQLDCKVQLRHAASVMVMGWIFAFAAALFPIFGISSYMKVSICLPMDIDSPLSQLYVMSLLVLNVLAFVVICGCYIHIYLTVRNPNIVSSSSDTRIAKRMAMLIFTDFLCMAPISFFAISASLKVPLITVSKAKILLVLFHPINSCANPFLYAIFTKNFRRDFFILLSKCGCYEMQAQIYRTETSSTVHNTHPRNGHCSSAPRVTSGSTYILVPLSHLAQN
As to the kind of experiment: FSH receptor-dependent CRE-luciferase reporter gene assay (CHO FSH-R 6CRE-Luc cells). The data set is classed as cell-based. Particulars: for inhibition at 30 µM: test concentration in μM in parentheses (30 μM), % inhibition of the response to the EC50 of FSH. An excerpt: Follicle-Stimulating Hormone Receptor-Dependent CRE-Luciferase Reporter Gene Assay for the Identification of Follicle-Stimulating Hormone (FSH) Antagonists
This procedure was used to identify and determine the relative potencies of human FSH receptor antagonists using a Chinese hamster ovarian cell line that stably produces the human FSH receptor and a luciferase reporter gene regulated by cAMP response elements.
The compounds were subsequently diluted in DMSO to working dilutions of 1 and 20 or 30 mM for 2-dose testing format and 1 μM-10 mM for dose-response format. The DMSO dilutions were diluted 500-fold in sterile growth medium [D-MEM/F-12 (GIBCO/BRL; Grand Island N.Y.) containing 15 mM HEPES, 2 mM 1-glutamine, pyridoxine hydrochloride, phenol red and 5% FetalClone II (HyClone Laboratories, Inc; Logan, Utah), 0.2% DMSO, 100 units penicillin G/ml, and 100 μg streptomycin sulfate/ml (GIBCO/BRL)]. The concentration of the vehicle in each of the compound dilutions was the same. • Positive Controls: Purified human FSH (>98%) was purchased from Cortex Biochem, Inc. (San Leandro, Calif.) and WAY-162002 (an FSH-R thiazolidinone antagonist) was obtained from the Wyeth Research compound repository. Preparation of Cells
The CHO FSH-R 6CRE-Luc cells (1D7 cells) were obtained from Affymax (Palo Alto, Calif.). These Chinese hamster ovary cells (CHO—K1) were genetically engineered to stably express the recombinant human FSH receptor gene and a luciferase reporter gene under the regulation of 6 copies of a cAMP response element. The cells were plated one day prior to treatment into 96-well white opaque plates at a density of 50,000 cells/100 μl/well in growth medium. On the day of treatment, the growth medium was removed from the wells by aspiration and 50 μl of fresh growth medium was added to each well. The cells were incubated at 37° C. in a humidified incubator with 5% CO2/95% air.
The treated cells were incubated for 4 hours at 37° C. in a humidified incubator with 5% CO2/95% air. At the end of-the incubation period, luciferase activity was measured by chemiluminescence using a commercially available kit (LucScreen, Tropix, Inc., Bedford, Mass.) according to the manufacturer's specifications, except that Buffer 1 and Buffer 2 were mixed together in equal proportion prior to the addition of 100 μl of the combined reagents to each well. Chemiluminescence was detected using a luminometer (EG & G Berthold Microlumat LB 96 P, Wallac, Gaithersburg, Md.) with chemiluminescence measured for 1 sec/well. Background luminescence was measured for each well prior to the addition of the LucScreen reagent.
In the 96-well 2-dose format, each compound was tested in duplicate at each dose. […] One plate was used to test a maximum of 22 compounds.
The EC50 of purified human FSH alone was tested in triplicate with each test compound. The doses chosen to test each compound were extrapolated from the initial 2-dose screening process. Along with the test compounds, purified human FSH was also tested in a dose response (0.03, 0.1, 0.3, 1, 3, 10, and 30 ng/ml) for a positive control and quality control. One plate was used for 3 test compounds and the FSH positive control.
Luciferase activity is expressed as relative light units/sec/well. Luciferase activity in antagonist was compared to the appropriate negative and positive controls. For 2-dose testing, results are reported as luciferase activity and are expressed as % inhibition of the response obtained from the EC50 of FSH. For dose-response testing, results are reported as IC50 values. Data were analyzed statistically by one-way analysis of variance with appropriate weighting and transformation and relevant paired test as determined by Biometrics (Wyeth Research, Princeton, N.J.). IC50 values were calculated using the Stat/Excel program developed by Biometrics with appropriate weighting and transformation.
(In a reporter assay the amount or activity of a reporter protein is the signal.)

Where [1] appears, read: dose-response in presence of EC50 of purified human FSH, read-out: CRE IC50.

Counter-ions that a name gives are not always drawn. Like-named read-outs stand apart in the source and are kept apart here. A value given as a limit tells only on which side of the number the result lay.

One may read the melting point as the temperature of the solid-liquid transition. A word on the IC50: it is the point on the concentration scale where inhibition reaches its midpoint. Broadly, the inhibition is the percentage by which the read-out fell short of the control.

`Cc1ccccc1-c1ccc(C(=O)N2Cc3ccc(C(=O)CCc4cccnc4)n3Cc3ccccc32)cc1` [Example 15, 1-{10-[(2′-Methyl-1,1′-biphenyl-4-yl)carbonyl]-10,11-dihydro-5H-pyrrolo[2,1-c][1,4]benzodiazepin-3-yl}-3-pyridin-3-ylpropan-1-one] displayed a melting point of 135 to 136 °C. For the same compound, the IC50 at human FSH receptor (setting [1]) turned out to be 12.1 µM. For `Cc1cc(Cl)ccc1OCC(=O)N1Cc2ccc(C(=O)c3ccc(-c4ccccc4)cc3)n2Cc2ccccc21` [Example 7, 1,1′-Biphenyl-4-yl{10-[(4-chloro-2-methylphenoxy)acetyl]-10,11-dihydro-5H-pyrrolo[2,1-c][1,4]benzodiazepin-3-yl}methanone], in that order: 102 to 105 °C and > 30 µM. The compound `Cc1cc(Cl)ccc1OCC(=O)N1Cc2ccc(C(=O)c3ccc(C(C)(C)C)cc3)n2Cc2ccccc21` [Example 8, (4-Tert-butylphenyl){10-[(4-chloro-2-methylphenoxy)acetyl]-10,11-dihydro-5H-pyrrolo[2,1-c][1,4]benzodiazepin-3-yl}methanone] came in with a melting point of 168 °C. Besides, the IC50 at human FSH receptor (setting [1]) was > 30 µM.

For `O=C(CCc1cccnc1)c1ccc2n1Cc1ccccc1N(C(=O)c1ccc(-c3ccccc3)cc1)C2` [Example 2, 1-[10-(1,1′-Biphenyl-4-ylcarbonyl)-10,11-dihydro-5H-pyrrolo[2,1-c][1,4]benzodiazepin-3-yl]-3-pyridin-3-ylpropan-1-one formic acid salt], the IC50 on human FSH receptor (setting [1]) was determined as 10.7 µM. Take `O=C(CCc1ccccc1)c1ccc2n1Cc1ccccc1N(C(=O)COc1ccc(Cl)cc1)C2` [Example 11, 1-{10-[(4-Chlorophenoxy)acetyl]-10,11-dihydro-5H-pyrrolo[2,1-c][1,4]benzodiazepin-3-yl}-3-phenylpropan-1-one]: the melting point was 126 to 128 °C. For the same compound, the inhibition at 30 µM at human FSH receptor worked out at 8%. Take `Cc1cc(Cl)ccc1OCC(=O)N1Cc2ccc(C(=O)c3ccccc3-c3ccccc3)n2Cc2ccccc21` [Example 9, 1,1′-Biphenyl-2-yl{10-[(4-chloro-2-methylphenoxy)acetyl]-10,11-dihydro-5H-pyrrolo[2,1-c][1,4]benzodiazepin-3-yl}methanone]: the half-maximal inhibitory concentration (IC50) on human FSH receptor (setting [1]) was > 30 µM.

In the case of `O=C(c1ccccc1-c1ccccc1)c1ccc2n1Cc1ccccc1N(C(=O)COc1ccc(Cl)cc1)C2` [Example 14, 1,1′-Biphenyl-2-yl{10-[(4-chlorophenoxy)acetyl]-10,11-dihydro-5H-pyrrolo[2,1-c][1,4]benzodiazepin-3-yl}methanone], the IC50 at human FSH receptor (setting [1]) was > 30 µM. For `Cc1cc(Cl)ccc1OCC(=O)N1Cc2ccc(C(=O)c3ccc(Cl)cc3)n2Cc2ccccc21` [Example 4, {10-[(4-Chloro-2-methylphenoxy)acetyl]-10,11-dihydro-5H-pyrrolo[2,1-c][1,4]benzodiazepin-3-yl}(4-chlorophenyl)methanone], the melting point fell in the range of 175 to 176 °C. In addition, the inhibition at 30 µM on human FSH receptor was 22%. Take `NC(=O)c1cccc(N2C(=O)[C@@H](CC(=O)NCCc3c[nH]c4ccccc34)S[C@H]2c2ccc(C#Cc3ccccc3)s2)c1` (relative stereo) [3-[(2S*,5R*)-5-{[2-(1H-Indol-3-yl)-ethylcarbamoyl]-methyl}-4-oxo-2-(5-phenylethynyl-thiophen-2-yl)-thiazolidin-3-yl]-benzamide, reference compound]: the half-inhibitory concentration (IC50) at human FSH receptor (positive control, in the presence of EC50 of purified human FSH, read-out: IC50 in CRE-luciferase assay) was 2 µM.

Compound `Cc1cc(Cl)ccc1OCC(=O)N1Cc2ccc(C(=O)CCc3ccccc3)n2Cc2ccccc21` [Example 5, 1-{10-[(4-Chloro-2-methylphenoxy)acetyl]-10,11-dihydro-5H-pyrrolo[2,1-c][1,4]benzodiazepin-3-yl}-3-phenylpropan-1-one] registered a melting point of 130 to 134 °C. On human FSH receptor (setting [1]), the 50% inhibitory concentration (IC50) is > 30 µM.

For `O=C(c1ccc(-c2ccccc2)cc1)c1ccc2n1Cc1ccccc1N(C(=O)COc1ccc(Cl)cc1)C2` [Example 13, 1,1′-Biphenyl-4-yl{10-[(4-chlorophenoxy)acetyl]-10,11-dihydro-5H-pyrrolo[2,1-c][1,4]benzodiazepin-3-yl}methanone], the melting point was 155 to 157 °C. Moreover, the inhibition at 30 µM at human FSH receptor stood at 14%. `O=C(c1ccc(Cl)cc1)c1ccc2n1Cc1ccccc1N(C(=O)COc1ccc(Cl)cc1)C2` [Example 10, {10-[(4-Chlorophenoxy)acetyl]-10,11-dihydro-5H-pyrrolo[2,1-c][1,4]benzodiazepin-3-yl}(4-chlorophenyl)methanone]: the melting point was determined as 195 °C. Also, on human FSH receptor (setting [1]), the IC50 was > 30 µM. For `Cc1cc(Cl)ccc1OCC(=O)N1Cc2ccc(C(=O)c3cccc4ccccc34)n2Cc2ccccc21` [Example 6, {10-[(4-Chloro-2-methylphenoxy)acetyl]-10,11-dihydro-5H-pyrrolo[2,1-c][1,4]benzodiazepin-3-yl}(1-naphthyl)methanone] the same measures were 130 to 134 °C and > 30 µM. For `CC(C)(C)c1ccc(C(=O)c2ccc3n2Cc2ccccc2N(C(=O)COc2ccc(Cl)cc2)C3)cc1` [Example 12, (4-tert-Butylphenyl){10-[(4-chlorophenoxy)acetyl]-10,11-dihydro-5H-pyrrolo[2,1-c][1,4]benzodiazepin-3-yl}methanone] the same measures were 171 °C and > 30 µM. As to `Cc1ccccc1-c1ccc(C(=O)N2Cc3ccc(C(=O)CNc4cccnc4)n3Cc3ccccc32)cc1C` [Example 1, 1-{10-[(2,2′-Dimethyl-1,1′-biphenyl-4-yl)carbonyl]-10,11-dihydro-5H-pyrrolo[2,1-c][1,4]benzodiazepin-3-yl}-2-(pyridin-3-ylamino)ethanone formic acid salt], on human FSH receptor, the inhibition at 30 µM came to 4%.
